According to US20220177471A1, “N-1 BRANCHED ALKYL SUBSTITUTED IMIDAZO[4,5-C]QUINOLINE COMPOUNDS, COMPOSITIONS, AND METHODS” (3M INNOVATIVE PROPERTIES COMPANY, priority 2019, published 2022):

Tests used:
human TLR8 = biological target: T1, human TLR8 (Homo sapiens, UniProt Q9NR97); assay: TLR activation, HEK-BLUE-hTLR8 SEAP reporter cells; type: cell-based; conditions: 16-20 hours, lowest concentration giving SEAP response at least 2x vehicle control, tested 0.01-30 micromolar
T1 construct: host or cells: HEK293 (HEK-BLUE-hTLR8)
T1 sequence (Q9NR97 27-1041): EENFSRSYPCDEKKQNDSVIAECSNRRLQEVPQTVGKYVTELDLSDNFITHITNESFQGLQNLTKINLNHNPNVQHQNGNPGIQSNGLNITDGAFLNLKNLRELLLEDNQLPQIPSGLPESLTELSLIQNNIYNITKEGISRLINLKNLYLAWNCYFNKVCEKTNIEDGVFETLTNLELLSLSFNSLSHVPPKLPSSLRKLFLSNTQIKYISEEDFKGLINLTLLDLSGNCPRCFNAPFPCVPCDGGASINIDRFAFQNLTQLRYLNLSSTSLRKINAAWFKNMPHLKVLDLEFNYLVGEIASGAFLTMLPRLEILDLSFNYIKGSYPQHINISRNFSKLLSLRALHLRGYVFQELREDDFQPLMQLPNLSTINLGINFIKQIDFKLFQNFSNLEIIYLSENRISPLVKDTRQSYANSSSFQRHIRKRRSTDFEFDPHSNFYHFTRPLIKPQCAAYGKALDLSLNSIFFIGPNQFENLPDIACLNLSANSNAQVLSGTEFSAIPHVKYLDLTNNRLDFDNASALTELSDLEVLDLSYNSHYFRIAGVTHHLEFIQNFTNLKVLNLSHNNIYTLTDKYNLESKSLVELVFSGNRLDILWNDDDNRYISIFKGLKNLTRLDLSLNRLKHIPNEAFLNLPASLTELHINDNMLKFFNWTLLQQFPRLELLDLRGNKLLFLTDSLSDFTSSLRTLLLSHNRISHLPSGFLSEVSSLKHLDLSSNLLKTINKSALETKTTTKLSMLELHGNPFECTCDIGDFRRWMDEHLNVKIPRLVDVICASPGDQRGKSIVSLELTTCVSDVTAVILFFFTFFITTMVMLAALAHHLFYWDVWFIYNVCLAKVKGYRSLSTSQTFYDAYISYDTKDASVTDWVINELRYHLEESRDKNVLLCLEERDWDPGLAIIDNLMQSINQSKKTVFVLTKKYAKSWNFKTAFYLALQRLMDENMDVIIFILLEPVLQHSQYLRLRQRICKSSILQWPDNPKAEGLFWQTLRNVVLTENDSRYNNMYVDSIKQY
Description: (§1) HEK-BLUE-hTLR7 or hTLR8 reporter cells were obtained from InvivoGen, San Diego, Calif. According to the manufacturer's description, these reporter cells were prepared by co-transfection of HEK293 cells with an inducible secreted embryonic alkaline phosphatase (SEAP) reporter gene and either the human TLR7 or TLR8 gene. The SEAP reporter gene was placed under the control of an IFN-β minimal promoter fused to five NF-κB and AP-1-binding sites. In the presence of a TLR ligand, activation of NF-κB and AP-1 occurs, resulting in a corresponding increase in SEAP levels.
(§2) In the assay, the HEK cells were grown and maintained using standard cell culture techniques in a growth medium that contained Dulbecco's Modified Eagle Medium (ThermoFisher Scientific Incorporated, Waltham, Mass.) supplemented with 1% penicillin/streptomycin and 10% heat-inactivated Gibco fetal bovine serum (ThermoFisher Scientific). Each compound was solubilized in DMSO to create a 3 mM stock solution. The stock solution was then further diluted with the growth medium to prepare serial dilutions. Each test compound was tested at a concentration of 30, 10, 3.3, 1.1, 0.37, 0.12, 0.04, and 0.01 micromolar using a 96-well format with 5×10^4 cells and 200 microliters of growth medium per well.
(§3) For each compound, hTLR7, hTLR8, and their respective null control HEK cells were screened. DMSO serially diluted into the growth medium served as the vehicle control. Cell culture supernatants containing the SEAP reporter were collected after an incubation period of 16-20 hours in a cell culture incubator (37° C. and 5% CO2), and either analyzed immediately or stored at −80° C. SEAP levels were measured using the colorimetric enzyme assay (QUANTI-BLUE (InvivoGen) according to manufacturer's instructions.
(§4) Specifically, the minimum effective concentration of each compound (micromolar) was determined as the lowest concentration of the compound that produced a SEAP expression response at least 2× greater than that observed with the vehicle control wells.

human TLR7 = biological target: T2, human TLR7 (Homo sapiens, UniProt Q9NYK1); assay: TLR activation, HEK-BLUE-hTLR7 SEAP reporter cells; type: cell-based; conditions: 16-20 hours, lowest concentration giving SEAP response at least 2x vehicle control, tested 0.01-30 micromolar
T2 construct: host or cells: HEK293 (HEK-BLUE-hTLR7)
T2 sequence (Q9NYK1 27-1049): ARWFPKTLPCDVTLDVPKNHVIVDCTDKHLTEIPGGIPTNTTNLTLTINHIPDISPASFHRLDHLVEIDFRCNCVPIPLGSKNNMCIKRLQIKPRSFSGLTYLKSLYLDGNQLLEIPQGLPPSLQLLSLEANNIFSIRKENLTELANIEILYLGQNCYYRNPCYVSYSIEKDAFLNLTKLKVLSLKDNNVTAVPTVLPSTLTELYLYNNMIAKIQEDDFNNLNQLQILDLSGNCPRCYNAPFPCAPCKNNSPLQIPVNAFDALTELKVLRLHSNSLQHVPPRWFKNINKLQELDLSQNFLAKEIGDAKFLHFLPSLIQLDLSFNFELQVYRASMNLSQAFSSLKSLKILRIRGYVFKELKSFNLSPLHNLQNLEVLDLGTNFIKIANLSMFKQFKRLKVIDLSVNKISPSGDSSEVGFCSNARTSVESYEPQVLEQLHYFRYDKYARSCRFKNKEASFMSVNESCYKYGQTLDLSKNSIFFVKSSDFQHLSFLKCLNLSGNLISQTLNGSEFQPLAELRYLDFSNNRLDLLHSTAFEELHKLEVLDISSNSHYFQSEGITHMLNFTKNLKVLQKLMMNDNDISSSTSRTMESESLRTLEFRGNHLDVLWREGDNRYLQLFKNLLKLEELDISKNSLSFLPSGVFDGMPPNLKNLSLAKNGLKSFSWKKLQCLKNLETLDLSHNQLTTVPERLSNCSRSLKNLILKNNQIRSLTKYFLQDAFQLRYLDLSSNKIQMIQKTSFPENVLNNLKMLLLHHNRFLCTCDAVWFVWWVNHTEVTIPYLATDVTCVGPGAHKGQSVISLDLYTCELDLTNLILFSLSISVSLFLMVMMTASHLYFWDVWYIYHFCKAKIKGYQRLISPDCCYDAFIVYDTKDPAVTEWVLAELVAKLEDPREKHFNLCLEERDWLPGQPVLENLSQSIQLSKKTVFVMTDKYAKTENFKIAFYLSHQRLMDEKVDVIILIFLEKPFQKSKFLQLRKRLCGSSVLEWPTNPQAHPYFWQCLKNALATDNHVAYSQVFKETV
Description: as §1, §2, §3, §4

## CC[C@H](n1cnc2c(N)nc3ccccc3c21)C(C)(C)O [Example 12, (3S)-3-(4-aminoimidazo[4,5-c]quinolin-1-yl)-2-methyl-pentan-2-ol]
Human TLR8
  MEC to Produce TLR Activation: TLR 8: >30 µM
Human TLR7
  MEC to Produce TLR Activation: TLR 7: >30 µM

## CCCC[C@H](n1cnc2c(N)nc3ccccc3c21)C(C)(C)O [Example 16, (3S)-3-(4-aminoimidazo[4,5-c]quinolin-1-yl)-2-methyl-heptan-2-ol]
Human TLR8
  MEC to Produce TLR Activation: TLR 8: >30 µM
Human TLR7
  MEC to Produce TLR Activation: TLR 7: >30 µM

## CCCC[C@@H](n1cnc2c(N)nc3ccccc3c21)C(C)(C)O [Example 15, (3R)-3-(4-aminoimidazo[4,5-c]quinolin-1-yl)-2-methyl-heptan-2-ol]
Human TLR8
  MEC to Produce TLR Activation: TLR 8: 10 µM
Human TLR7
  MEC to Produce TLR Activation: TLR 7: 0.01 µM

## CC(C)C[C@@H](n1cnc2c(N)nc3ccccc3c21)C(C)(C)O [Example 17, (3R)-3-(4-aminoimidazo[4,5-c]quinolin-1-yl)-2,5-dimethyl-hexan-2-ol]
Human TLR8
  MEC to Produce TLR Activation: TLR 8: >30 µM
Human TLR7
  MEC to Produce TLR Activation: TLR 7: 1.1 µM
